Values quoted from earlier work, collected in paper PMC10713630, “Elucidation of the structural basis for ligand binding and translocation in conserved insect odorant receptor co-receptors” (Nature Communications, 2023).

Key:
MhraOR5 M209V = test system: MhraOR5 M209V; design: method as in Del Marmol et al. 3; settings: ref Del Marmol et al. 3; cited from earlier work
MhraOR5 = test system: MhraOR5; design: method as in PMID 34349260; settings: cited from earlier work
MhraOR1 G169A = test system: MhraOR1 G169A; design: method as in Del Marmol et al. 3; settings: ref Del Marmol et al. 3; cited from earlier work
AgamOrco/AgamOR65 = settings: cited from earlier work

Row | Compound | Effect on DEET-induced channel response (MhraOR5 M209V) | Agonist of MhraOR5 (MhraOR5) | Effect on Eugenol-induced channel response (MhraOR1 G169A) | EC50 (AgamOrco/AgamOR65; AgamOrco/AgamOR65, ref Tailor et al. 1) [nM] | Potency relative to VUAA1 (AgamOrco/AgamOR65; ranked by EC50)
1 | CCN(CC)C(=O)c1cccc(C)c1 [DEET] | I | agonists | – | – | –
2 | C=CCc1ccc(O)c(OC)c1 [Eugenol, eugenol] | – | agonists | I | – | –
3 | CC(C)c1ccc(NC(=O)CSc2nnc(-c3ccncc3)n2C2CC2)cc1 [VUAA4] | – | – | – | 2100 | greater potency
